This note sets out measurements from US8361998B2, “Compounds and their use as IKACh blockers” (AstraZeneca AB, priority 2010, dated 2013).

The target of assay [1] is T1, human ether-a-go-go-related gene (hERG)-encoded K+ channel (Homo sapiens, UniProt Q12809).
T1 construct: expressed in transfected cells; host or cells: Chinese hamster ovary K1 (CHO) cells
Briefly: hERG inhibition, IonWorks HT, hERG-expressing CHO cells. The assay is classed as cell-based. The protocol:
Inhibition of the human ether-a-go-go-related gene (hERG)-encoded K^+ channel was determined using hERG-expressing Chinese hamster ovary K1 (CHO) cells on a IonWorks™ HT assay platform as described by M. H. Bridgland-Taylor et al. J. of Pharmacological and Toxicological Methods (2006); 54:189-199.

In assay [2] the test system is anaesthetized rabbits subjected to vagal stimulation. Kind of assay: In vivo PD model, anaesthetized rabbits with vagal stimulation: right atrial effective refractory period (RAERP), QT. More on the design: species or system rabbit. The protocol: Rabbits were anaesthetized using ketalar and domitor (2.5 and 0.07 mg/kg, respectively) as an i.v. bolus followed by a maintenance i.v. infusion (11 and 0.33 mg/kg/h, respectively) and ventilated with room air. Two percutaneous polyethylene catheter (Venflon 0.8 mm, Viggo, Helsingborg, Sweden) for administration of anaesthetics and drug infusions, respectively, were inserted into marginal veins on the right and left ear. A polyethylene catheter (Intramedic PE 160 Clay Adams, Becton Dickinson, Sparks, Md., USA) was inserted into the left carotid artery and advanced to the level of the aortic arch for blood pressure recording (by means of a pressure transducer, Peter von Berg Medizintechnik Gmbh, Kirchseeon/Englharting, Germany) and for blood sampling. For recording of right atrial electrogram and for atrial pacing, a 4F quadripolar electrophysiological recording catheters (Electrophysiology catheter-Deflectable tip, Biosense Webster Inc, Johnson & Johnson, Diamond Bar, Calif., USA) was advanced into the right jugular vein and positioned high up in the right atrium (HRA). Electrodes were advanced via introducers (4F Fast-Cath haemostasis introducer, ST. Jude Medical, DAIG Division, Inc. Minnetonka, Minn., USA) correctly positioned through fluoroscopic guidance. The effective refractory period in the right atrium (RAERP) was determined at a stimulation current strength approximately 20% above the threshold for pacing the atria. A custom-made PC-based (AstraZeneca R&D, Mölndal, Sweden) programmable stimulator and constant current pulse generator (WPI Stimulus Isolator, World Precision Instruments, Sarasota, Fla., USA) were used for stimulation at one or two predefined basic cycle lengths (S1) of for example 200 and 300 ms. A premature extra stimulus (S2) was introduced after every 10th paced basic beat with increments of 2 ms until capture. […] For vagal stimulation, both vagal nerves were ligated and cut in the cervical region and propranolol (0.5 mg/kg) was administrated as an i.v. infusion to decrease sympathetic influence. Electrodes were inserted in the middle of the right vagal nerve to stimulate the efferent vagi. The RAERP was determined without or with vagal stimulation at 50% of maximal vagal response. Subsequent infusion of compound aimed to increase the RAERP with 20 ms during the first dose of two consecutive doses. The drug infusion was followed by a washout period of approximately 30-60 min. QT prolongation was recorded from surface electrocardiography (ECG). The effect on RAERP was measured several times during infusion and washout and blood samples were taken at each measurements. Effect and plasma concentration data was analysed accounting for a concentration-effect-time delay and the unbound plasma concentration (Ceu) increasing the RAERP by 20 ms was calculated.

Structures are written as SMILES. Counter-ions that a name gives are not always drawn.

T1 sequence (Q12809 whole entry): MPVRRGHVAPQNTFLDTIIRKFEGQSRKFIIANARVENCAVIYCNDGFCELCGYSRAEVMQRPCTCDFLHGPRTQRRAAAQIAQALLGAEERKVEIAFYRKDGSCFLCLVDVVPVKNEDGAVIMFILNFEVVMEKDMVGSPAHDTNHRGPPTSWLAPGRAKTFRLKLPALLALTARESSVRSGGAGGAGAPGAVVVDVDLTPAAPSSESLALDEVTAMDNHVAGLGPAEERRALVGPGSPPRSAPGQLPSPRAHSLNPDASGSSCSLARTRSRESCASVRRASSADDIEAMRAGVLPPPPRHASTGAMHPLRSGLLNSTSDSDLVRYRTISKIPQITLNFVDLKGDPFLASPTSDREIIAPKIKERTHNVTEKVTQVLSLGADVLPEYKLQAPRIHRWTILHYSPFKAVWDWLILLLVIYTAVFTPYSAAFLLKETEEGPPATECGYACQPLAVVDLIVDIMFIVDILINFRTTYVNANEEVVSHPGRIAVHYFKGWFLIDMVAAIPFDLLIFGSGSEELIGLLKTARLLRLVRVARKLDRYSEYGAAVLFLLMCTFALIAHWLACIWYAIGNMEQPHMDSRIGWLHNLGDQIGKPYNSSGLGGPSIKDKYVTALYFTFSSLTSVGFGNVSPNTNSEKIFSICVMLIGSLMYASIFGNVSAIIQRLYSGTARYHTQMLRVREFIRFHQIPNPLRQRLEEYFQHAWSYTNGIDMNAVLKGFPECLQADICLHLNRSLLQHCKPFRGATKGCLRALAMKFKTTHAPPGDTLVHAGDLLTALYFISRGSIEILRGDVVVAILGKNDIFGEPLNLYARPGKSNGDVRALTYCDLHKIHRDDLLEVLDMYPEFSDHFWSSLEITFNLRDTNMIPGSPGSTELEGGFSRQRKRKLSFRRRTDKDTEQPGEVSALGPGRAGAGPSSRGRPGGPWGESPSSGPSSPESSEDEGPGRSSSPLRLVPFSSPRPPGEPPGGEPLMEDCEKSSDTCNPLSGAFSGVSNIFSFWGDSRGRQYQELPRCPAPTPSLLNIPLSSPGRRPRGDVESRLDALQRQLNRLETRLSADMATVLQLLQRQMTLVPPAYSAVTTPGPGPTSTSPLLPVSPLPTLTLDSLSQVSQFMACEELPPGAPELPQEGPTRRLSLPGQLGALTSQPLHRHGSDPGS

Compound `CCC[C@@H](CN1CCC1)N(C)C(=O)c1ccc(Cl)cc1` [Example 1.2, (S)-N-(1-(Azetidin-1-yl)pentan-2-yl)-4-chloro-N-methylbenzamide] had an IC50 in assay [1] of 20 µM. Also, the “Ceu 20 ms” value in assay [2] was found to be 0.40 µM.

In the case of `CCC[C@@H](CN1CCC1)N(C)C(=O)c1ccc(F)c(C)c1` [Example 1.4, (S)-N-(1-(Azetidin-1-yl)pentan-2-yl)-4-fluoro-N,3-dimethyl-benzamide], the 50% inhibitory concentration (IC50) in assay [1] is more than 33 µM. Moreover, in assay [2], the “Ceu 20 ms” value was determined as 0.60 µM.

With `CC(C)[C@@H](CN1CCCC1)N(C)C(=O)c1ccc(F)cc1Cl` [Example 1.17, (S)-2-Chloro-4-fluoro-N-methyl-N-(3-methyl-1-(pyrrolidin-1-yl)butan-2-yl)benzamide], the IC50 in assay [1] was more than 100 µM. In addition, the “Ceu 20 ms” value in assay [2] worked out at 1.40 µM.

`Cc1cc(C(=O)N(C)[C@H](CN2CCC2)C2CC2)ccc1F` [Example 4.1, (S)—N-(2-(Azetidin-1-yl)-1-cyclopropylethyl)-4-fluoro-N,3-dimethylbenzamide] yielded an IC50 in assay [1] of more than 33 µM. The “Ceu 20 ms” value in assay [2] stood at 0.74 µM.

With `CN(C(=O)c1ccc(Br)cc1)[C@H](CN1CC(O)C1)C1CC1` [Example 4.4, (S)-4-Bromo-N-(1-cyclopropyl-2-(3-hydroxyazetidin-1-yl)ethyl)-N-methylbenzamide], in assay [1], the IC50 was more than 33 µM. Also, the “Ceu 20 ms” value in assay [2] came out at 0.75 µM.

`CC(C)[C@@H](CN1CCC1)N(C)C(=O)c1ccc(Cl)cc1` [Example 5.1, (S)-N-(1-(Azetidin-1-yl)-3-methylbutan-2-yl)-4-chloro-N-methylbenzamide] displayed an IC50 in assay [1] of 76 µM. Further, in assay [2], the “Ceu 20 ms” value amounted to 1.00 µM.

In assay [1], `CC(C)[C@@H](CN1CCC1)N(C)C(=O)c1ccc(Br)cc1.O=C(O)CCC(=O)O` [Example 5.2] gave a half-maximal inhibitory concentration (IC50) of 34 µM. Also, the “Ceu 20 ms” value in assay [2] was found to be 0.60 µM.

`Cc1cc(C(=O)N(C)[C@H](CN2CC(O)C2)C(C)C)ccc1F` [Example 6.1, (S)-4-Fluoro-N-(1-(3-hydroxyazetidin-1-yl)-3-methylbutan-2-yl)-N,3-dimethylbenzamide] displayed an IC50 in assay [1] of more than 100 µM. Also, in assay [2], the “Ceu 20 ms” value came to 0.54 µM.

For `CC(C)[C@@H](CN1CC(O)C1)N(C)C(=O)c1ccc(Cl)cc1` [Example 6.2, (S)-4-Chloro-N-(1-(3-hydroxyazetidin-1-yl)-3-methylbutan-2-yl)-N-methylbenzamide], the IC50 in assay [1] was more than 53 µM. Besides, in assay [2], the “Ceu 20 ms” value was found to be 0.40 µM.

`Cc1cc(C(=O)N(C)[C@H](CN2CC(O)C2)C2CC2)ccc1F` [Example 7.1, (S)—N-(1-Cyclopropyl-2-(3-hydroxyazetidin-1-yl)ethyl)-4-fluoro-N,3-dimethylbenzamide]: in assay [1], the IC50 is more than 33 µM. Besides, in assay [2], the “Ceu 20 ms” value was 5.40 µM.

For the compound `CN(C(=O)c1ccc(Cl)cc1)[C@H](CN1CC(O)C1)C1CC1` [Example 7.2, (S)-4-Chloro-N-(1-cyclopropyl-2-(3-hydroxyazetidin-1-yl)ethyl)-N-methylbenzamide], the IC50 in assay [1] was more than 33 µM. Besides, the “Ceu 20 ms” value in assay [2] came to 1.00 µM.

As for `CN(C(=O)c1ccc(F)c(Cl)c1)[C@H](CN1CC(O)C1)C1CC1` [Example 7.3, (S)-3-Chloro-N-(1-cyclopropyl-2-(3-hydroxyazetidin-1-yl)ethyl)-4-fluoro-N-methylbenzamide], in assay [1], the IC50 is more than 33 µM. The “Ceu 20 ms” value in assay [2] was determined as 2.10 µM.

The compound `CCC[C@@H](CN1CC(O)C1)N(C)C(=O)c1ccc(F)c(F)c1` [Example 8.1, (S)-3,4-Difluoro-N-(1-(3-hydroxyazetidin-1-yl)pentan-2-yl)-N-methylbenzamide] returned an IC50 in assay [1] of more than 100 µM. Further, the “Ceu 20 ms” value in assay [2] came out at 0.87 µM.

In the case of `CCC[C@@H](CN1CC(O)C1)N(C)C(=O)c1ccc(Cl)cc1` [Example 8.2, (S)-4-Chloro-N-(1-(3-hydroxyazetidin-1-yl)pentan-2-yl)-N-methyl-benzamide, hydrochloride], in assay [1], the IC50 was more than 57 µM. Also, the “Ceu 20 ms” value in assay [2] came out at 0.34 µM.

Regarding `CCC[C@@H](CN1CC(O)C1)N(C)C(=O)c1ccc(F)cc1` [Example 8.6, (S)-4-Fluoro-N-(1-(3-hydroxyazetidin-1-yl)pentan-2-yl)-N-methylbenzamide], the IC50 in assay [1] is more than 33 µM. Also, in assay [2], the “Ceu 20 ms” value is 2.50 µM.

For `CC(C)[C@@H](CN1CC[C@H](O)C1)N(C)C(=O)c1ccc(Cl)cc1` [Example 10.2, 4-Chloro-N-((S)-1-((S)-3-hydroxypyrrolidin-1-yl)-3-methylbutan-2-yl)-N-methylbenzamide hemi tartrate], in assay [1], the IC50 is more than 33 µM. The “Ceu 20 ms” value in assay [2] worked out at 1.40 µM.

Compound `Cc1cc(C(=O)N(C)[C@H](CN2CCCC2)C(C)C)ccc1F` [Example 12.1, (S)-4-Fluoro-N,3-dimethyl-N-(3-methyl-1-(pyrrolidin-1-yl)butan-2-yl)benzamide-dihydroxysuccinate] returned an IC50 in assay [1] of more than 100 µM. In addition, the “Ceu 20 ms” value in assay [2] was 0.68 µM.

As to `Cc1cccc(C(=O)N(C)[C@H](CN2CCCC2)C(C)C)c1` [Example 12.2, (S)-1-(2-(N,3-Dimethylbenzamido)-3-methylbutyl)pyrrolidinium 2,3-dihydroxysuccinate], the IC50 in assay [1] is more than 33 µM. Also, in assay [2], the “Ceu 20 ms” value is 2.20 µM.

Consider `CC(C)[C@@H](CN1CCCC1)N(C)C(=O)c1ccc(F)c(Cl)c1` [Example 16.55, (S)-3-Chloro-4-fluoro-N-methyl-N-(3-methyl-1-(pyrrolidin-1-yl)butan-2-yl)benzamide], for which the IC50 in assay [1] is more than 31 µM. Moreover, the “Ceu 20 ms” value in assay [2] worked out at 0.60 µM.

On to `CC(C)[C@@H](CN1CCCC1)N(C)C(=O)c1ccc(Cl)cc1` [Example 18, (S)-1-(2-(4-Chloro-N-methylbenzamido)-3-methylbutyl)pyrrolidinium chloride], for which, in assay [1], the IC50 is more than 30 µM. For the same compound, the “Ceu 20 ms” value in assay [2] is 0.70 µM.

Compound `CC(C)[C@@H](CN1CCCC1)N(C)C(=O)c1ccc(Br)cc1` [Example 19, (S)-1-(2-(4-bromo-N-methylbenzamido)-3-methylbutyl)pyrrolidinium 3-carboxy-2,3-dihydroxypropanoate] showed an IC50 in assay [1] of 17 µM. Besides, in assay [2], the “Ceu 20 ms” value turned out to be 0.34 µM.

For the compound `CC[C@H](C)[C@@H](CN1CC(O)C1)N(C)C(=O)c1ccc(C#N)cc1F` [Example 29.7, 4-Cyano-2-fluoro-N-((2S,3S)-1-(3-hydroxyazetidin-1-yl)-3-methylpentan-2-yl)-N-methylbenzamide], the half-inhibitory concentration (IC50) in assay [1] is more than 33 µM. Also, in assay [2], the “Ceu 20 ms” value stood at 0.79 µM.

As for `CCCC[C@@H](CN1CC(O)C1)N(C)C(=O)c1ccc(C#N)cc1` [Example 33.4, 4-Cyano-N-[(2S)-1-(3-hydroxyazetidin-1-yl)hexan-2-yl]-N-methylbenzamide], in assay [1], the IC50 was found to be 18 µM. The “Ceu 20 ms” value in assay [2] amounted to 0.52 µM.

Regarding `CCCC[C@@H](CN1CC(O)C1)N(C)C(=O)c1ccc(F)cc1` [Example 33.7, 4-Fluoro-N-[(2S)-1-(3-hydroxyazetidin-1-yl)hexan-2-yl]-N-methylbenzamide], in assay [1], the IC50 was determined as 79 µM. Besides, the “Ceu 20 ms” value in assay [2] came out at 0.80 µM.

In assay [1], `CC(C)C[C@@H](CN1CC(O)C1)N(C)C(=O)c1ccc(F)c(F)c1` [Example 38.1, 3,4-Difluoro-N-[(2S)-1-(3-hydroxyazetidin-1-yl)-4-methylpentan-2-yl]-N-methylbenzamide] yielded an IC50 of more than 33 µM. Also, in assay [2], the “Ceu 20 ms” value is 0.34 µM.

`CC(C)C[C@@H](CN1CC(O)C1)N(C)C(=O)c1ccc(Cl)cc1` [Example 38.2, 4-Chloro-N-[(2S)-1-(3-hydroxyazetidin-1-yl)-4-methylpentan-2-yl]-N-methylbenzamide] gave an IC50 in assay [1] of more than 33 µM. In addition, in assay [2], the “Ceu 20 ms” value came to 0.38 µM.

In assay [1], `CC(C)C[C@@H](CN1CC(O)C1)N(C)C(=O)c1ccc(C#N)cc1F` [Example 38.6, 4-Cyano-2-fluoro-N-[(2S)-1-(3-hydroxyazetidin-1-yl)-4-methylpentan-2-yl]-N-methylbenzamide] displayed an IC50 of more than 33 µM. Further, the “Ceu 20 ms” value in assay [2] stood at 0.72 µM.

As for `CN(C(=O)c1ccc(C#N)cc1)[C@H](CN1CC(O)C1)C1CCC1` [Example 39.2, (S)-4-Cyano-N-(1-cyclobutyl-2-(3-hydroxyazetidin-1-yl)ethyl)-N-methylbenzamide], in assay [1], the IC50 amounted to 80 µM. Further, the “Ceu 20 ms” value in assay [2] turned out to be 0.28 µM.
